# Measurements published in article PMC6717004 (Toxicology in vitro : an international journal published in …, 2019).
# Like-named read-outs stand apart in the source and are kept apart here. Marks after values point to notes of the source that are not given here.
# Assays:
# [1] = tested on: human plasma; conditions: cited from earlier work; for reported Fub based on RED: human plasma, ref Wetmore et al.
# [2] = tested on: pooled human plasma; experiment: Rapid Equilibrium Dialysis; assay type: in vitro ADME; conditions: 10 μM, 37 °C, 4 hours, 8K MWCO membrane
# [3] = tested on: pooled human plasma; experiment: Solid Phase Micro-Extraction; assay type: in vitro ADME; conditions: 10 μM, room temperature, C18 fibers
# [4] = tested on: human plasma; conditions: ref Musteata et al., 2006; cited from earlier work
# [5] = assay type: in vitro ADME; conditions: RED with PBS in both chambers, 10 μM, 4 hours, 8K MWCO
# [6] = ref Wetmore, 2015, Wetmore et al., 2012
structure (smiles),measurement,setting,value
c1cc2c3c(cccc3c1)CC2 [Acenaphthene],Literature % unbound (equilibrium dialysis),[1]; [6],4.5%^b
"COc1cc(N)c(Cl)cc1C(=O)NC1CCN(CCCOc2ccc(F)cc2)CC1OC (stereo not drawn) [Cisapride, reference compound]",unbound fraction (Fub) by RED,[2],most highly bound
same,Literature % unbound (equilibrium dialysis),[1]; ref FDA package insert,2-3%^c
CC(C)NCC(O)COc1cccc2ccccc12 (stereo not drawn) [Propranolol],unbound fraction (Fub) by SPME,[3],consistent with the reported value
same,Literature % unbound (SPME),[4],25%^e
c1ccc2ccccc2c1 [Naphthalene],protein-free free fraction (equilibration percentage),[5],> 80%
same,reported Fub based on RED,[1]; 2012,~ 2%
c1ccc(-c2ccccc2)cc1 [Biphenyl],Literature % unbound (equilibrium dialysis),[1],1.6%^b
CC1(C)C(C=C(Cl)Cl)C1C(=O)OCc1cccc(Oc2ccccc2)c1 (stereo not drawn) [Permethrin],reported Fub based on RED,[1]; 2012,0%
"CC(C)NCC(O)c1ccc(O)c(O)c1 (stereo not drawn) [Isoproterenol, reference compound]",unbound fraction (Fub) by RED,[2],mostly free
same,Literature % unbound (equilibrium dialysis),"[1]; ref Kelly and McDevitt, 1978",35%^a
c1cc2ccc3cccc4ccc(c1)c2c34 [Pyrene],Literature % unbound (equilibrium dialysis),[1]; [6],2.4%^b
CNC(=O)Oc1cccc2ccccc12 [Carbaryl],reported Fub based on RED,[1]; 2012,70%
same,Literature % unbound (equilibrium dialysis),[1]; [6],69%^b
Cc1nc(N(C)C)nc(OC(=O)N(C)C)c1C [Pirimicarb],Literature % unbound (equilibrium dialysis),[1]; [6],16%^b
